{
  "source": "patent US7118921B1",
  "about": "“Incorporation and applications of biomolecular interactions within a carrier” (McMaster University, priority 1999, dated 2006)",
  "system": "melittin and intact BCaM:melittin complex",
  "assay_type": "binding, bovine",
  "data": [
    {"smiles": "CN1CCN(CCCN2c3ccccc3Sc3ccc(C(F)(F)F)cc32)CC1", "note": "[TFP, trifluoperazine]", "values": [
      {"measurement": "Effect on emission wavelength and anisotropy of the intact complex or of melittin", "result": "not affected"},
      {"measurement": "Effect on intensity of melittin or the intact complex", "result": "large decrease in intensity"}
    ]}
  ]
}
